Laboratory results as given in patent US20090104145A1, “Mixtures of Anthranilamide Invertebrate Pest Control Agents” (priority 2004, published 2009).

How the values were obtained:
Experiment in all cases: whole plant or invertebrate
Format in all cases: in vivo
[1] = tested on: cotton melon aphid (Aphis gossypii Glover); conditions: rate 2 ppm
Procedure: (§1) The pest control protection afforded by the mixtures or compositions is not limited, however, to these species. The analysis of synergism or antagonism between the mixtures or compositions was determined using Colby's equation. The average % mortality data for the test compounds alone were inserted into the Colby's equation. If the observed average % mortality was higher than “p”, the expected % mortality, the mixture or composition had synergistic effects. If the observed average % mortality was equal to or lower than the expected mortality, the mixture or composition either had no synergistic effect or an antagonistic effect. In these tests, Compound 1 is the compound of Formula 1.
(§2) Test compounds were formulated using a solution containing 10% acetone, 90% water and 300 ppm X-77® Spreader Lo-Foam Formula non-ionic surfactant containing alkylarylpolyoxyethylene, free fatty acids, glycols and isopropanol (Loveland Industries, Inc.) to provide the desired concentration in ppm. Formulated test solutions were then applied in 1 mL volumes through a SUJ2 atomizer nozzle with ⅛ JJ custom body (Spraying Systems Co.) positioned 1.27 cm (0.5 inches) above the top of each test unit.
For evaluating control of cotton melon aphid (Aphis gossypii Glover) through contact and/or systemic means, each test unit consisted of a small open container with a 6- to 7-day-old cotton plant inside. This was pre-infested by placing on a leaf of the test plant 30 to 40 aphids on a piece of leaf excised from a culture plant (cut-leaf method). The larvae moved onto the test plant as the leaf piece desiccated. After pre-infestation, the soil of the test unit was covered with a layer of sand.
Test compounds were formulated and sprayed as described for Test A. The applications were replicated three times. After spraying of the formulated test compounds, each test unit was allowed to dry for 1 hour and then a black, screened cap was placed on top. The test units were held for 6 days in a growth chamber at 19-21° C. and 50-70% relative humidity.

[2] = tested on: silverleaf whitefly (Bemisia argentifolii Bellows and Perring); conditions: Table 2B; rate 10 ppm, compound alone
Procedure: as §1
For evaluating control of silverleaf whitefly (Bemisia argentifolii Bellows and Perring) through contact and/or systemic means, each test unit consisted of a small open container with a 12- to 14-day-old cotton plant inside. This was pre-infested by placing test units into cages infested with adult whiteflies so that oviposition on the cotton leaves could occur. The adults were removed from the plants with an air-blast nozzle, and the test units were capped. The test units were then stored 2 to 3 days before spraying.
as §2
The results for all experimental compositions in this test were replicated three times. After spraying of the formulated test composition, each test unit was allowed to dry for 1 hour and the cap removed. The test units were held for 13 days in a growth chamber at 28° C. and 50-70% relative humidity.

[3] = tested on: corn planthopper (Pereginus maidis); conditions: rate 0.4 ppm
Procedure: as §1, §2
For evaluating control of corn planthopper (Pereginus maidis) through contact and/or systemic means, each test unit consisted of a small open cylindrical container with a 3- to 4-day-old corn (maize) plant (spike) inside. White sand was added to the top of the soil prior to application. Test compounds were formulated and sprayed with 3 replications as described for Test A. After spraying, the test units were allowed to dry for 1 hour before they were post-infested with 10 to 20 corn planthoppers (18- to 20-day-old nymphs) by sprinkling them onto the sand with a salt shaker. A black, screened cap was placed on the top of each container. The test units were held for 6 days in a growth chamber at 19-21° C. and 50-70% relative humidity.

## dinotefuran
[1]
  % mortality (obs): 64%
[2]
  % mortality (obs): 74%
[3]
  % mortality (obs): 86%
